Reference: US20200270216A1, “COMPOSITIONS AND METHODS FOR INHIBITING N-SMASE2” (The Regents of the University of California, priority 2017, published 2020)

Experiments:
Type in all cases: cell-based
[1] = tested on: HEK293T Tau RD P301S FRET biosensor cells; test: EV-mediated tau transfer assay
Procedure: For EV (extracellular vesicles)-mediated tau transfer assay, donor cells, transduced with AD-brain derived synaptosomal extracts (P2) or synthetic K18 seeds, were cultured for 48 hours in exosome-free medium with or without indicated concentration of tested compounds or DMSO for control, then medium was collected and EVs were purified using Exo-Quick-TC exosome purification kit (SBI, EXOTC10A-1) according to the manufacturing instructions. Naive recipient cells were plated at density 30,000 cells per well (96-well plates), grown for 12 hour in regular medium and then medium was exchanged to exosome-depleted medium, contained exosomes purified from donor cells (each well of recipients received amount of exosomes purified from one well of donor cells). Recipient cells were cultured in the presence of donor cell exosomes for 60 hrs. EV-mediated transfer assay scheme is presented at the FIG. 5A (right).
HEK293T Tau RD P301S FRET biosensor cells were growing in the Dulbecco's Modified Eagle's medium (DMEM) with higher glucose, 10% FBS, and 1% Penicillin-streptomycin at 37° C./5% CO2. Cells were plated in 10-sm dishes (3 million cells per dish in the regular medium) and grown for 12 hrs. Cells assigned to be donors were transduced with pulled synaptosomal (P2) extracts from AD cases using lipofectamine 2000, according to the published literature with minor modifications. We used 35 μg of pulled AD or control (NL) material per one 10-sm dish (TableS1). Defrosted P2 extracts were sonicated in water bath sonicator for 10 minutes, and diluted with Opti-MEM serum reduced medium to the final volume 200 μL per 10-sm dish. In a separate tube lipofectamine 2000 were combined with Opti-MEM medium, based on 25 μl of lipofectamine and 175 μL OptiMEM medium per each 10-sm dish, and incubated for 10 minutes at room temperature (RT). Each P2 or NL extract mix (200 μl) and prepared lipofectamine 2000 mix (200 μl) were combined and incubated for 20 min at RT. Each 10-sm dish with cell received 400 μl of the final liposomes in the total volume of medium 5 ml per dish. Cultures treated with equal amount of empty liposomes were used as an additional control group. Cells were incubated with liposomes for 20 hrs.
For “D+R” assay recipient cells were labeled with 1,1′-Dioctadecyl-3,3,3′,3′-tetramethylindodicarbocyanine (DiD) according to manufacturer's protocol (ThermoFisher V22887) on day 2. On day 3, donor cells were trypsinized (0.05% Trypsin/EDTA), washed with fresh exosome-free medium contained 10% of exosome-depleted FBS (ThermoFisher, A2720803). DiD-labeled recipient cells were also trypsinized and washed in exosome-free medium. […] FRET signal was detected using LSRII flow cytometer (BD biosciences). […]

[2] = tested on: HEK293T Tau RD P301S FRET biosensor cells; test: D+R functional assay: tau seed transfer from P2-seeded donor cells to DiD-labeled recipient cells; settings: D+R model, flow cytometry (FIG. 4C)
Procedure: The compounds disclosed herein were further evaluated in the functional assays (“D+R approach”). The assays were based on the use of two cell populations—donor cells (D) and recipient cells (R). Recipients express a specific signal upon accumulation of protein aggregates (for example, FRET signal). The D+R approach can be divided into four steps (FIG. 4A).
In step 1, donor and recipient cells were plated in separation and protein aggregation is induced in the donor cells by using tissue-derived or synthetic proteopathic seeds (“seeding”) or by chemical and/or genetic methods. In step 2, either donor cells or recipient cells were labeled with a lipophilic dye (or by other cell labeling technology) in order to be able to distinguish between donor and recipients cells after trypsinization and re-plating of the donor and recipient cells together in step 3 (R+D). Alternatively, donor and recipient cells were physically divided by a permeable support (for example, Transwell). In any scenario, the cells were connected through the media and they grow for 24-60 hours with or without addition of pre-selected compounds. Efficiency of proteopathic seed transmission from donor cells to recipient cells can be analyzed using microscopy, flow cytometry, or imaging flow cytometry. […] Treatment of the tau biosensor cells with tau seeds lead to RD aggregation, as a result, CFP and YFP molecules come into close proximity and a FRET signal can be generated in the CFP/YFP pair upon illumination. The far-red fluorescent, lipophilic carbocyanine dye, DiD, was used for labeling recipient cells. This dye allowed for distinguishing between the DiD-negative donor and the DiD positive recipient cells without interference with the CFP/YFP FRET signal. The representative images of DiD-negative FRETpositive donor cell seeded with P2-derived tau seeds), DiD-positive FRET-negative recipient cell (DiD-R), and DiD positive FRET-positive recipient cell, which were growing in the presence of P2-D (DiD-R/R+D) are presented at the FIG. 4B. […]

[3] = tested on: P2-seeded tau biosensor cells; test: EV purification and characterization (immunoblot of exosome markers, nanoparticle tracking analysis); settings: 50 μM, 48 hours, nanoparticle tracking analysis
From the text: Extracellular vesicles (EVs) were purified from the cell culture medium using Exo-Quick-TC exosome purification kit (SBI, EXOTC10A-1) according to the manufacturing instructions. Immunoblot analysis of the EV fractions was done by 10-20% Tris-Glycine gel in non-reduced conditions, transferred to PVDF membrane and probed with antibodies against CD63 (ThermoFisher, 10628D), followed by HRP-conjugated secondary antibodies. Chemiluminescent signals were obtained with Super Signal West Femto substrate (Thermo Scientific Pierce 34,095) and detected using a BioSpectrum 600 imaging system and quantified using VisionWorks Version 6.6A software (UVP; Upland, Calif.). […] Inhibition of nSMase2 activity in cell extracts of confluent tau biosensors was confirmed by nSMase2 activity assay analogous to the one described in Example 2.
Our analysis confirmed that nSMase2 inhibitors suppress release of EVs from P2-seeded tau biosensor cells. […] EV samples purified from the same number of donor cells were analyzed per each group. Purified EVs were imaged by transmission electron microscopy (FIG. 5C). Size distribution of particles in the samples were assessed by nanoparticle tracking analysis (FIG. 5D). WB analysis for exosome markers also confirmed decrease in the exosome-specific marker expression (FIG. 5E).
Donor cells were grown in medium with exosome-depleted FBS (ThermoFisher, A2720803) for 48 hours with or without compounds, cell culture medium was collected and EVs purified using ExoQuick-TC kit (SBI biosciences). For quality control, small amounts of purified EVs were fixed on a copper mesh in glutaraldehyde/paraformaldehyde solution, stained with 2% uranyl acetate solution and imaged on a JEOL 100CX electron microscope at 29,000 times magnification. […] Chemiluminescent signals were obtained with Super Signal West Femto substrate (Thermo Scientific Pierce 34095) and detected using a BioSpectrum 600 imaging system and quantified using VisionWorks Version 6.6A software (UVP; Upland, Calif.).

O=C(/C=C/c1ccc(/C=C/C(=O)Nc2ccc(C3=NCCN3)cc2)cc1)Nc1ccc(C2=NCCN2)cc1 [GW4869]
EV-mediated transfer of tau to recipient cells ([1]; P2-seeded donor cells treated at 50 μM, 48 hours): decrease | reduction of EV-mediated transfer of tau seeds to naive recipient cells ([1]; inhibitor treatment of donor cells): 2.6 times | tau seed transmission from donor cells to recipient cells [2]: restrained tau seed transmission from the donor cells to the recipient cells in a dose-dependent manner | release of EVs from P2-seeded donor cells [3]: released less EVs
